Assay results published in article PMC11418745 (Molecular cell, 2023).
Like-named read-outs stand apart in the source and are kept apart here.

How the values were obtained:
[1] = target: T1, SIR2-HerA complex (SIR2 NADase site) (Escherichia coli, UniProt A0ABF7PQ24); assay: cryo-EM structure, […] Å; assay type: binding; conditions: SIR2 active site; 12:6 complex (also 12:5 8SUB and 12:4 8SUW)
[2] = target: SIR2-HerA complex (HerA nucleotide site) (Escherichia coli, UniProt A0ABF7PQ25); assay: ATPase kit, colorimetric phosphate; assay type: biochemical; conditions: 20 mM Tris pH 8.0, 75 mM KCl, 2 mM MgCl2, 37 °C
[3] = target: T1, SIR2-HerA complex (SIR2 NADase site); assay: ε-NAD+ fluorescence NADase assay; assay type: biochemical; conditions: 0.5 μM protein, 20 mM Tris pH 8.0, 75 mM KCl, 2 mM MgCl2, 33 °C
EcSIR2 dodecamer = EcSIR2 dodecamer (Escherichia coli, UniProt A0ABF7PQ24); assay: cryo-EM structure, […] Å; assay type: binding; conditions: active site of SIR2 dodecamer without HerA; not hydrolysed
cryo-EM structure [4] = target: the molecule itself; assay: cryo-EM structure
cryo-EM structure [5] = target: the molecule itself; assay: cryo-EM structure; remark: listed apart in the source

With `Nc1ncnc2c1ncn2[C@@H]1O[C@H](COP(=O)(O)OP(=O)(O)OC[C@H]2OC(O)[C@H](O)[C@@H]2O)[C@@H](O)[C@H]1O` (stereo partly shown) [ADPR] the “cryo-EM structure, 2.83 Å” value [1] was “an ADPR molecule, the product of NAD^+ hydrolysis, occupied the active site of EcSIR2”.

For `Nc1ncnc2c1ncn2[C@@H]1O[C@H](COP(=O)(O)OP(=O)(O)OP(=O)(O)O)[C@@H](O)[C@H]1O` [ATP], the “ATPase kit, colorimetric phosphate” value [2] was “the SIR2-HerA complex, not HerA alone, can hydrolyze ATP”.

`NC(=O)c1ccc[n+]([C@@H]2O[C@H](COP(=O)(O)OP(=O)(O)OC[C@H]3O[C@@H](n4cnc5c4ncn4ccnc54)[C@H](O)[C@@H]3O)[C@@H](O)[C@H]2O)c1` [ε-NAD^+] was tested, and the “ε-NAD+ fluorescence NADase assay” value [3] was “To test the NADase activities of the SIR2-HerA complex and SIR2 alone, ε-NAD^+ assays”.

For `NC(=O)c1ccc[n+]([C@@H]2O[C@H](COP(=O)(O)OP(=O)(O)OC[C@H]3O[C@@H](n4cnc5c(N)ncnc54)[C@H](O)[C@@H]3O)[C@@H](O)[C@H]2O)c1` [NAD^+], the “cryo-EM structure, 3.6 Å” value (EcSIR2 dodecamer) was “identified an NAD^+ molecule in the active site of EcSIR2”.

B1: E. coli SIR2 (EcSIR2) co-expressed with HerA as the SIR2-HerA complex (enzyme)
chain: MSIYQGGNKLNEDDFRSHVYSLCQLDNVGVLLGAGASVGCGGKTMKDVWKSFKQNYPELLGALIDKYLLVSQIDSDNNLVNVELLIDEATKFLSVAKTRRCEDEEEEFRKILSSLYKEVTKAALLTGEQFREKNQGKKDAFKYHKELISKLISNRQPGQSAPAIFTTNYDLALEWAAEDLGIQLFNGFSGLHTRQFYPQNFDLAFRNVNAKGEARFGHYHAYLYKLHGSLTWYQNDSLTVNEVSASQAYDEYINDIINKDDFYRGQHLIYPGANKYSHTIGFVYGEMFRRFGEFISKPQTALFINGFGFGDYHINRIILGALLNPSFHVVIYYPELKEAITKVSKGGGSEAEKAIVTLKNMAFNQVTVVGGGSKAYFNSFVEHLPYPVLFPRDNIVDELVEAIANLSKGEGNVPF
In the case of B1, the “stoichiometry N” value (cryo-EM structure [4]) is reported as 12.

B2: E. coli SIR2 (EcSIR2), expressed alone (enzyme)
chain: B1 chain
With B2 the “stoichiometry N” value (cryo-EM structure [5]) was 12.

B3: E. coli HerA (EcHerA) co-expressed with SIR2 as the SIR2-HerA complex (enzyme)
chain: MSLFKLTEISAIGYVVGLEGERIRINLHEGLQGRLASHRKGVSSVTQPGDLIGFDAGNILVVARVTDMAFVEADKAHKANVGTSDLADIPLRQIIAYAIGFVKRELNGYVFISEDWRLPALGSSAVPLTSDFLNIIYSIDKEELPKAVELGVDSRTKTVKIFASVDKLLSRHLAVLGSTGYGKSNFNALLTRKVSEKYPNSRIVIFDINGEYAQAFTGIPNVKHTILGESPNVDSLEKKQQKGELYSEEYYCYKKIPYQALGFAGLIKLLRPSDKTQLPALRNALSAINRTHFKSRNIYLEKDDGETFLLYDDCRDTNQSKLAEWLDLLRRRRLKRTNVWPPFKSLATLVAEFGCVAADRSNGSKRDAFGFSNVLPLVKIIQQLAEDIRFKSIVNLNGGGELADGGTHWDKAMSDEVDYFFGKEKGQENDWNVHIVNMKNLAQDHAPMLLSALLEMFAEILFRRGQERSYPTVLLLEEAHHYLRDPYAEIDSQIKAYERLAKEGRKFKCSLIVSTQRPSELSPTVLAMCSNWFSLRLTNERDLQALRYAMESGNEQILKQISGLPRGDAVAFGSAFNLPVRISINQARPGPKSSDAVFSEEWANCTELRC
With B3 the “stoichiometry N” value (cryo-EM structure [4]) was 6.
